Results: US11059815B2, “Synthesis of small molecule histone deacetylase 6 degraders, compounds formed thereby, and pharmaceutical compositions containing them” (Wisconsin Alumni Research Foundation, priority 2018, dated 2021)

Key:
acetylated histone H3 = assay: Western blot of acetylated histone H3 in MM1S cells; assay type: cell-based, human
Excerpt: (§1) FIGS. 12A, 12B, and 12C are a series of western blots showing that degrader 12d selectively promotes HDAC6 degradation in MM1S cells.
(§2) To further examine the selectivity of the new generation of HDAC6 degraders, compound 12d was compared to SAHA, Next-A, degrader 1 and pan-inhibitor 2 for change of acetylated a-tubulin and acetylated histone H3.
(§3) When the cells reached 90% confluence, they were harvested and plated 1×10^6 cells per well in 6-well plate. After overnight seeding, the cells were treated with a solution of compounds or vehicle in culture medium. The culture medium was removed after treatment and then washed twice with cold PBS. To obtain whole cell lysate, all cells were treated with RIPA lysis buffer (25 mM Tris, pH 7-8, 150 mM NaCl, 0.1% SDS, 0.5% sodium deoxycholate, 1% Triton X-100, protease inhibitor cocktail (Roche, 1 tablet per 10 mL) and 1 mM PMSF) on ice for 10 minutes. Supernatant was collected after spinning down at 16,000 g at 4° C. for 15 minutes. Protein concentration was measured by using the Pierce BCA protein assay (Thermo Fisher Scientific). […] The Immunoblot was generated by ChemiDoc MP Imaging Systems (Bio-Rad) and analyzed by Image J software (only available for download online at https://imagej.net/Downloads). […]

acetylated tubulin = assay: Western blot of acetylated tubulin in MM1S cells; assay type: cell-based, human; settings: 100 nM
Excerpt: as §1, §2
as §3, with “Scientific). About 10-40 μg of total protein was mixed with 4× Laemmli Loading Dye (250 mM Tris, pH 6.8, 40% glycerol, 5% SDS, 0.005% bromophenol blue, 4% BME) and heated at 95-100° C. for 5 minutes. The heated sample was then subjected to 7.5-12% SDS-PAGE and transferred to PVDF membrane (Bio-Rad,). The membrane was blocked in 5% non-fat milk (Bio-rad) in TBS-T washing buffer (137 mM NaCl, 20 mM Tris, 0.1% Tween) and then incubated with primary antibodies at 4° C. overnight.” for “Scientific).”
The activity of all eleven “n+4” VHL-based potential degraders to suppress HDAC6 expression was tested at 100 nM and compared to CRBN degrader 2 in MM1S cells. The resulting cells were analyzed for HDAC6 expression by in-cell ELISA (FIG. 15). […]

HDAC6 = biological target: T1, HDAC6 (Homo sapiens, UniProt Q9UBN7); assay: In-cell ELISA of HDAC6 protein level in MM1S cells; assay type: cell-based; settings: 6 h; for inhibition at 0.01 µM: n=3, read-out: Degradation (%) 10 nM; for inhibition at 0.1 µM: n=3, read-out: Degradation (%) 100 nM
T1 construct: endogenous in cells; host or cells: MM1S (ATCC CRL-2974)
T1 sequence (Q9UBN7 1-1215): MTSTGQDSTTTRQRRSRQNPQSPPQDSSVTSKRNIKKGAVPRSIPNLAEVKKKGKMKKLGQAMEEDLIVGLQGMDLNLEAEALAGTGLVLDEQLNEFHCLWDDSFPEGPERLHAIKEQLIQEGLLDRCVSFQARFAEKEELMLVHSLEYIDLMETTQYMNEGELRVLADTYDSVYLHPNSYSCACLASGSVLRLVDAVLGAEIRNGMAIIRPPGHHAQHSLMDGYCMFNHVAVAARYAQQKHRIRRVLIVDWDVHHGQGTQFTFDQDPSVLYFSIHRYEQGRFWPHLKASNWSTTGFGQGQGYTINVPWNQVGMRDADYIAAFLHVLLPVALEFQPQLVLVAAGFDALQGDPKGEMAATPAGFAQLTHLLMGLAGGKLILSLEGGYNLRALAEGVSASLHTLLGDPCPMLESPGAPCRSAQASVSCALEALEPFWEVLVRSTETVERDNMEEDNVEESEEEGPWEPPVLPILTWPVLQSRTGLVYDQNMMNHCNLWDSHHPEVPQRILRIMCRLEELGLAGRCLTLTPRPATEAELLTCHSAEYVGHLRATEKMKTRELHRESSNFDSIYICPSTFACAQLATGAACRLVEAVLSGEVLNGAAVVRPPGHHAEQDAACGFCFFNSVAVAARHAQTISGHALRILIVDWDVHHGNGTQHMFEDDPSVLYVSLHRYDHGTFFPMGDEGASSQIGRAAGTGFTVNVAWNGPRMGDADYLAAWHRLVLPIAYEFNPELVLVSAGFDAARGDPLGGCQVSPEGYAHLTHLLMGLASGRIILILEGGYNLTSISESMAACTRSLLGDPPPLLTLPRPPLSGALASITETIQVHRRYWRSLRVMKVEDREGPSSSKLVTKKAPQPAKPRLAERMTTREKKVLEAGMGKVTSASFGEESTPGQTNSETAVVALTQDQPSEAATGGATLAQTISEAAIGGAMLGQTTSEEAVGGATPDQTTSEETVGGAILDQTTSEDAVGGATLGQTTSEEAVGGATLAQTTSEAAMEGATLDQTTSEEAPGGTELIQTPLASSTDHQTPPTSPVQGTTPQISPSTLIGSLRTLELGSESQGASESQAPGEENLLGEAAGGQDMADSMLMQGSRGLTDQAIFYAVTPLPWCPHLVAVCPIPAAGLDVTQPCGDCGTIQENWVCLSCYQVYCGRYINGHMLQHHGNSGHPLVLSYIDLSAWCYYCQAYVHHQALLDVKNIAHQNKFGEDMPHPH
Method: FIG. 9 is a histogram depicting the results of screening of compounds for HDAC6 degradation activity by in-cell ELISA. MM1S cells were treated with compounds at 100 nM (blue bars) or 10 nM (red bars) for 6 h. Data was normalized to vehicle (DMSO)-treated group and the bar graph represents as mean of relative HDAC6 protein level (n=3) with ±SD as error bar. Statistical significance was analyzed by one-way ANOVA. Not significant (ns) P>0.05, *P≤0.05, **P≤0.01, ***P≤0.001, ****P≤0.0001.
FIG. 11 is a graph depicting dose response of selected degrader candidates. MM1S cells were treated for 6 h and analyzed by in-cell ELISA. Data was normalized to vehicle (DMSO)-treated group and dot plot represented as mean relative expression (n=3) with ±SD as error bar. Nonlinear fitting of inhibitor concentration vs. response (three parameters) was generated by GraphPad Prism with R2 from 0.97 to 0.99.
FIG. 15 is a histogram depicting relative HDAC6 expression as a function of linker length for compounds 3a through 3k as described in the Examples section, Part 2. Human MM1S cells were treated with 100 nM degraders for 6 hours and analyzed by in-cell ELISA assay.
FIG. 17 is a dose-response curve for degraders 3j (n=1), 3k (n=12) and 2, at concentrations from 1 nM to 300 nM for 4 h in MM1S. See the Examples, Part 2.
To screen the new series of degraders, an in-cell ELISA assay was developed and validated. The compounds were treated at 100 nM and 10 nM in MM1S cells for 6 h. Resulting cells were then fixed and analyzed by in-cell ELISA. […] Degraders including 1 at 100 nM degraded 73.5% to 85.0% of HDAC6 with minor difference. At 10 nM concentration of compounds, obvious structure-activity-relationship (SAR) was observed. […] For example, 12d, 12h, 12i, 12o and 12p all achieved about 70% degradation. Among the C4-linked series, 12d with medium length linker (5+1) achieved most degradation in sub-series 12a-e (m=1). […] Among C5-linked series, the potency of sub-series 12l-p (m=1) increased with the linker length. […] It appeared that both the distance and linking positions contributed to the degradation efficiency. The rigid triazole ring in the middle of the linker likely modulated the plasticity of degrader-bridged ternary complex.
The amount of cellular HDAC6 was measured in response to concentrations of compounds from 0.1 nM to 1 μM. […] The new degraders had single-digit nanomolar DC50, which was about 3 to 5 fold of improvement from 9.12 nM of degrader 1. […] As discussed above, most PROTACs were designed to avoid degrading other proteins except the targeted POIs. However, in these studies, it was hypothesized that HDAC6 degraders with IKZF degradation will have enhanced anti-proliferation effect MM1S cells.
MM1S cells were harvested and plated with 5×10^5 cells in 100 μL media per well 96-wells plate. After overnight seeding, 25 μL media containing 5× dosing concentration of the compounds or vehicle was added to each well. After 6-hour treatment at 37° C. in a humidified 5% CO2 atmosphere, cells were fixed by adding 125 μL 8% formaldehyde in TBS buffer (137 mM NaCl, 25 mM Tris, 2.7 mM potassium chloride, pH 7.6) and incubated at room temperature (RT) for 15 minutes. Removal of fixing solution was followed by once rinse and twice washes with TBS-T washing buffer (137 mM NaCl, 20 mM Tris, 0.1% Tween, pH 7.6). Cells were then permeabilized by adding 100 μL 0.1% Triton-X in TBS and incubated at RT for 15 minutes. Removal of permeabilizing solution was followed by once rinse and once wash with TBS-T. Cellular endogenous peroxidases were quenched by adding 100 μL 1% H2O2 in TBS and incubation at RT for 20 minutes. Removal of quenching solution was followed by once rinse and once wash with TBS-T. Non-specific binding sites were blocked by adding […] 5% BSA in TBS-T (with 0.02% NaN3) and incubation at 4° C. overnight. […]

[1] = MM1.S, 10 nM, 100% minus mean (± SD) relative HDAC6 expression
[2] = MM1.S, 100 nM, 100% minus mean (± SD) relative HDAC6 expression

inhibition at 0.01 µM (HDAC6; [1]) [%] | inhibition at 0.1 µM (HDAC6; [2]) [%] | SMILES | other results
 |  | O=C(CCCCCCC(=O)Nc1ccccc1)NO [SAHA, Suberoylanilide hydroxamic acid, reference compound] | change of acetylated histone H3 (acetylated histone H3): strong acetylated histone H3 signal; change of acetylated tubulin (acetylated tubulin): didn't
47.2 ± 4.8 | 80.4 ± 0.3 | CCCCN(Cc1ccc(C(=O)NO)cc1)C(=O)Nc1ccc(OCCn2cc(CCCNc3ccc4c(c3)C(=O)N(C3CCC(=O)NC3=O)C4=O)nn2)cc1 (centres unmarked) [Compound 12q, 4-((1-butyl-3-(4-(2-(4-(3-((2-(2,6-dioxopiperidin-3-yl)-1,3-dioxoisoindolin-5-yl)amino)propyl)-1H-1,2,3-triazol-1-yl)ethoxy)phenyl)ureido)methyl)-N-hydroxybenzamide] | 
57.1 ± 1.4 | 81.4 ± 0.6 | CCCCN(Cc1ccc(C(=O)NO)cc1)C(=O)Nc1ccc(OCCn2cc(CNc3ccc4c(c3)C(=O)N(C3CCC(=O)NC3=O)C4=O)nn2)cc1 (centres unmarked) [Compound 12l, 4-((1-butyl-3-(4-(2-(4-(((2-(2,6-dioxopiperidin-3-yl)-1,3-dioxoisoindolin-5-yl)amino)methyl)-1H-1,2,3-triazol-1-yl)ethoxy)phenyl)ureido)methyl)-N-hydroxybenzamide] | 
62.1 ± 1 | 81.3 ± 2.3 | CCCCN(Cc1ccc(C(=O)NO)cc1)C(=O)Nc1ccc(OCCn2cc(CNc3cccc4c3C(=O)N(C3CCC(=O)NC3=O)C4=O)nn2)cc1 (centres unmarked) [Compound 12a, 4-((1-butyl-3-(4-(2-(4-(((2-(2,6-dioxopiperidin-3-yl)-1,3-dioxoisoindolin-4-yl)amino)methyl)-1H-1,2,3-triazol-1-yl)ethoxy)phenyl)ureido)methyl)-N-hydroxybenzamide] | DC50 (HDAC6; 0.1 nM to 1 μM, nonlinear fit, ± SD): 3.41 ± 0.52 nM; Dmax (HDAC6; MM1.S, 0.1 nM to 1 μM, nonlinear fit, ± SD, read-out: Dmax (Vehicle %)): 88 ± 2.23%
 |  | CCCCN(Cc1ccc(C(=O)NO)cc1)C(=O)Nc1ccc(OCCCCn2cc(CNc3cccc4c3C(=O)N(C3CCC(=O)NC3=O)C4=O)nn2)cc1 (centres unmarked) [Compound 12n, 4-((1-butyl-3-(4-(4-(4-(((2-(2,6-dioxopiperidin-3-yl)-1,3-dioxoisoindolin-4-yl)amino)methyl)-1H-1,2,3-triazol-1-yl)butoxy)phenyl)ureido)methyl)-N-hydroxybenzamide] | Degradation (%) 10 nM (HDAC6; 10 nM, 100% minus mean (± SD) relative HDAC6 expression, n=3): 63.3 ± 0.8%; Degradation (%) 100 nM (HDAC6; 100 nM, 100% minus mean (± SD) relative HDAC6 expression, n=3): 80.9 ± 0.4%

SMILES | inhibition at 0.01 µM (HDAC6; [1]) [%] | inhibition at 0.1 µM (HDAC6; [2]) [%] | other results
CCCCN(Cc1ccc(C(=O)NO)cc1)C(=O)Nc1ccc(OCCCCn2cc(CNc3cccc4c3C(=O)N(C3CCC(=O)NC3=O)C4=O)nn2)cc1 (centres unmarked) [Compound 12c, 4-((1-butyl-3-(4-(4-(4-(((2-(2,6-dioxopiperidin-3-yl)-1,3-dioxoisoindolin-4-yl)amino)methyl)-1H-1,2,3-triazol-1-yl)butoxy)phenyl)ureido)methyl)-N-hydroxybenzamide] | 64.3 ± 3.2 | 85 ± 1.2 | 
